# Test results reported in US20240327393A1 (SIRONAX LTD., priority 2021, published 2024).
# Test system: HT-1080 (ATCC, CCL-121) cells
# Assay: HT-1080 cell viability assay with ferroptosis inducer RSL3 (Cell Titer-Glo)
# Format: cell-based
# Conditions: Homo sapiens; HT-1080 cells treated with RSL3; 3-fold, 10-point dilution, 1.1 μM highest concentration; Table 3; read-out: EC50 (nM), ferroptosis inhibitory activity
# Outline: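 HT-1080 cells (6000 per well) were cultured overnight at 37 °C, then co-treated with RSL3 and compound in a 3-fold, 10-point series topping at 1.1 μM. Viability was read by CellTiter-Glo luminescence and normalized to untreated controls. EC50 came from a sigmoidal non-linear regression fit.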
row,EC50 [nM],SMILES
1,0.1 to 100,"Cc1cc(N2CC(OC(F)(F)F)C2)ccc1Nc1ccc2c(c1)OCC(O)C(=O)N2 (stereo not drawn) [Compound 657, 3-hydroxy-8-[2-methyl-4-[3-(trifluoromethoxy)azetidin-1-yl]anilino]-3,5-dihydro-2H-1,5-benzoxazepin-4-one]"
2,0.1 to 100,"Cc1cc(N2CC(OC(F)F)C2)ccc1Nc1ccc2c(c1)OCC(O)C(=O)N2 (stereo not drawn) [Compound 658, 8-[4-[3-(difluoromethoxy)azetidin-1-yl]-2-methyl-anilino]-3-hydroxy-3,5-dihydro-2H-1,5-benzoxazepin-4-one]"
3,0.1 to 100,"CCC(C)(C)Nc1ccc(Nc2ccc3c(c2)OCC(=O)N3)c(C)c1 [Compound 659, 7-[4-(1,1-dimethylpropylamino)-2-methyl-anilino]-4H-1,4-benzoxazin-3-one]"
